Results reported in patent US10849976B2, “Compositions and methods for protecting saponin activity” (SarTec Corporation, priority 2016, dated 2020).
Like-named read-outs stand apart in the source and are kept apart here.

Tested on: glucose oxidase
From the text: In addition, a saponin molecule has a few to several glucose units bonded to it, depending on the exact plant from which the saponin is extracted. Each glucose unit bonded to the saponin may have up to four more hydroxy (—OH) groups attached and pointing outward from the glucose ring into the water solution. Glucose concentrations can be measured by an assay that depends on glucose oxidase acting upon glucose. However, glucose oxidase is prevented from acting upon glucose if borate is effectively bound to glucose. Thus, observing a declining amount of glucose as measured using a glucose oxidase based assay is indicative of borate binding to glucose, which in turn, serves as another indication of the efficacy of the saponin-protective agent.
A standard glucose solution was prepared by weighing about 0.9 g of glucose and 0.450 g of NaCl into a 500.0 mL volumetric flask. Reverse osmosis water was added while mixing the reagents to reach the 500 mL total volume. Next, a 40.0 mL portion of the standard glucose solution was added to a 50 mL vial and 0.106 g of sodium borate was successively added resulting in a molar ratio of borate:glucose in a range of 1:1 to 6:1. Glucose levels were measured using a OneTouch Ultra 2 blood glucose meter.
The glucose level for the standard glucose/saline solution was taken both before and after the borate-containing glucose solutions were measured for glucose concentration.

SMILES: O=BOB(O)OB(O)OB=O [Sodium Borate, sodium borate]
- Protection of glucose from oxidation by glucose oxidase (3:1 borate:glucose molar ratio): effectively entirely protected
- Glucose Meter Reading (Borate:Glucose molar ratio 1:1, 0.106 sodium borate added): 106 mg/dL
- Glucose Meter Reading (Borate:Glucose molar ratio 2:1, 0.212 sodium borate added): 38 mg/dL
- Glucose Meter Reading (Borate:Glucose molar ratio 3:1, 0.318 sodium borate added): “Low Glucose < 20 mg/dL”
- Glucose Meter Reading (Borate:Glucose molar ratio 6:1, 0.636 sodium borate added): “Error 4”
